Measurements from patent publication US10022453B2 (BAYER PHARMA AKTIENGESELLSCHAFT, priority 2013, dated 2018).

Tests used:
[1] = molecular target: T1, human kinesin spindle protein KSP/Eg5 (Homo sapiens, UniProt P52732); assay: Inhibition of the kinesin spindle protein KSP/Eg5 (ATPase, malachite green); type: biochemical; conditions: 10 nM KSP motor domain, 500 μM ATP, 2 h RT
T1 construct: The motor domain of the human kinesin spindle protein KSP/Eg5; purchased tebu-bio/Cytoskeleton Inc 027EG01-XL
T1 sequence (P52732 18-359 limits assumed): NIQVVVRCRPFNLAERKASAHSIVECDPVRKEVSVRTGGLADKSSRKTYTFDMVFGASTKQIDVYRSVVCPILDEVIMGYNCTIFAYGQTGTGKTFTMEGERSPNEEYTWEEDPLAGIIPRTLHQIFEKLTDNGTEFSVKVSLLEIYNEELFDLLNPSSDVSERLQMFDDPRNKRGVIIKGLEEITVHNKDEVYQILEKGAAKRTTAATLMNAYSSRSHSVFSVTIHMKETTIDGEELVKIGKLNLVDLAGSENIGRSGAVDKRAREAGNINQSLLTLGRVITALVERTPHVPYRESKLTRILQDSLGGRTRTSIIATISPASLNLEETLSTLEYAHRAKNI
Procedure: C-1b Determination of the Inhibition of the Kinesin Spindle Protein KSP/Eg5 by Selected Examples
The motor domain of the human kinesin spindle protein KSP/Eg5 (from tebu-bio/Cytoskeleton Inc, No. 027EG01-XL) is incubated at a concentration of 10 nM with 50 μg/ml taxol- (from Sigma No. T7191-5MG) stabilized microtubuli (bovine or porcine, from tebu-bio/Cytoskeleton Inc) for 5 min at RT in 15 mM PIPES, pH 6.8 (5 mM MgCl2 and 10 mM DTT, from Sigma). The freshly prepared mixture is aliquoted into a 384-well MTP. The inhibitors to be examined at concentrations of 1.0×10^−6 M to 1.0×10^−13 and ATP (final concentration 500 μM, from Sigma) are then added. Incubation is at RT for 2 h. ATPase activity is detected by detecting the inorganic phosphate formed using malachite green (from Biomol). […] The individual data of the dose-activity curve are eight-fold determinations. The IC50 values are means of three independent experiments.

[2] = Cell permeability, flux assay using Caco-2 cells; conditions: human, Caco-2
Procedure: C-3 In Vitro Tests for Determining Cell Permeability
The cell permeability of a substance can be investigated by means of in vitro testing in a flux assay using Caco-2 cells [M. D. Troutman and D. R. Thakker, Pharm. […] For this purpose, the cells were cultured for 15-16 days on 24-well filter plates. For the determination of permeation, the respective working example was applied in a HEPES buffer to the cells either apically (A) or basally (B) and incubated for 2 hours. After 0 hours and after 2 hours, samples were taken from the cis and trans compartments. The samples were separated by HPLC (Agilent 1200, Böblingen, Germany) using reverse phase columns.
Of critical importance for toxophores which are released intracellularly is the permeability from B to A [Papp(B-A)] and the ratio of Papp(B-A) to Papp(A-B) (efflux ratio): the lower this permeability, the slower the active and passive transport processes of the substance through the monolayer of Caco-2 cells.

| IC50 [1] [nM] | SMILES | Papp B→A at 2 h [2] [nm/s] | efflux ratio at 2 h [2] |
| --- | --- | --- | --- |
| 2.52 | CC(C)(C)[C@H](c1nc(-c2cc(F)ccc2F)cn1Cc1ccccc1)N(CC(CN)CS)C(=O)CO (single isomer, unassigned; isomer 1) [Example 93] |  |  |
| 5.14 | CC(C)(C)[C@H](c1nc(-c2cc(F)ccc2F)cn1Cc1ccccc1)N(CC(CN)CS)C(=O)CO (single isomer, unassigned; isomer 2) [Example 94] |  |  |
|  | CC(C)(C)[C@H](c1nc(-c2cc(F)ccc2F)cn1Cc1ccccc1)N(CC[C@H](N)C(=O)NCCN1C(=O)CC(SC[C@H](N)C(=O)O)C1=O)C(=O)CO (stereo partly drawn) [Example 61, S-{1-[2-({(2S)-2-Amino-4-[{(1R)-1-[1-benzyl-4-(2,5-difluorophenyl)-1H-imidazol-2-yl]-2,2-dimethylpropyl}(glycoloyl)amino]butanoyl}amino)ethyl]-2,5-dioxopyrrolidin-3-yl}-L-cysteine] | 44 | 7.4 |
|  | CC(C)(C)[C@H](c1nc(-c2cc(F)ccc2F)cn1Cc1ccccc1)N(CC[C@H](N)C(=O)NCCOCCN1C(=O)CC(SC[C@H](N)C(=O)O)C1=O)C(=O)CO (some centres unmarked) [Example 62] | 50 | 6 |
|  | CC(C)(C)[C@H](c1nc(-c2cc(F)ccc2F)cn1Cc1ccccc1)N(CC[C@H](N)C(=O)NN)C(=O)CO.O=C(O)C(F)(F)F [Example 77, Trifluoroacetic acid/N-[(3S)-3-amino-4-hydrazino-4-oxobutyl]-N-{(1R)-1-[1-benzyl-4-(2,5-difluorophenyl)-1H-imidazol-2-yl]-2,2-dimethylpropyl}-2-hydroxyacetamide (1:1)] | 480 | 47 |
|  | CC(C)(C)[C@H](c1nc(-c2cc(F)ccc2F)cn1Cc1ccccc1)N(CC[C@H](N)C(=O)NCCC(=O)O)C(=O)CO [Example 79, N-{(2S)-2-Amino-4-[{(1R)-1-[1-benzyl-4-(2,5-difluorophenyl)-1H-imidazol-2-yl]-2,2-dimethylpropyl}(glycoloyl)amino]butanoyl}-beta-alanine] | 58 |  |
| 1.42 | CC(C)(C)[C@H](c1nc(-c2cc(F)ccc2F)cn1Cc1ccccc1)N(CC[C@H](N)C(=O)N(N)CC(=O)O)C(=O)CO [Example 81, (1-{(2S)-2-Amino-4-[{(1R)-1-[1-benzyl-4-(2,5-difluorphenyl)-1H-imidazol-2-yl]-2,2-dimethylpropyl}(glycoloyl)amino]butanoyl}hydrazino)acetic acid/trifluoroacetic acid (1:2)] |  |  |
| 3.05 | CC(C)(C)[C@H](c1nc(-c2cc(F)ccc2F)cn1Cc1ccccc1)N(CCCN)C(=O)c1ccc(N)cc1 [Example 95, Trifluoroacetic acid/4-amino-N-(3-aminopropyl)-N-{(1R)-1-[1-benzyl-4-(2,5-difluorophenyl)-1H-imidazol-2-yl]-2,2-dimethylpropyl}benzamide (2:1)] |  |  |
| 5.99 | CC(C)(C)[C@H](c1nc(-c2cc(F)ccc2F)cn1Cc1ccccc1)N(CCCNC(=O)[C@@H](N)CCCNC(N)=O)C(=O)CO [Example 100, Trifluoroacetic acid/N-{3-[{(1R)-1-[1-benzyl-4-(2,5-difluorophenyl)-1H-imidazol-2-yl]-2,2-dimethylpropyl}(glycoloyl)amino]propyl}-N5-carbamoyl-L-ornithinamide (1:1)] |  |  |
| 0.179 | CC(C)(C)[C@H](c1cc(-c2cc(F)ccc2F)cn1Cc1ccccc1)N(CC[C@H](N)C(=O)N[C@@H](CO)C(=O)O)C(=O)CO [Example 201, N-{(2S)-2-Amino-4-[{(1R)-1-[1-benzyl-4-(2,5-difluorophenyl)-1H-pyrrol-2-yl]-2,2-dimethylpropyl}(glycoloyl)amino]butanoyl}-L-serine/trifluoroacetic acid (1:1)] |  |  |
| 0.23 | CC(C)(C)[C@H](c1cc(-c2cc(F)ccc2F)cn1Cc1ccccc1)N(CC[C@H](N)C(=O)NCC(=O)O)C(=O)CO [Example 203, N-{(2S)-2-Amino-4-[{(1R)-1-[1-benzyl-4-(2,5-difluorophenyl)-1H-pyrrol-2-yl]-2,2-dimethylpropyl}(glycoloyl)amino]butanoyl}glycine/trifluoroacetic acid (1:1)] |  |  |
|  | CC(C)(C)[C@H](c1cc(-c2cc(F)ccc2F)cn1Cc1ccccc1)N(CC[C@H](N)C(=O)NCCOCCN1C(=O)CC(SC[C@H](N)C(=O)O)C1=O)C(=O)CO.O=C(O)C(F)(F)F (stereo partly drawn) [Example 251, S-(1-{2-[2-({(2S)-2-Amino-4-[{(1R)-1-[1-benzyl-4-(2,5-difluorophenyl)-1H-pyrrol-2-yl]-2,2-dimethylpropyl}(glycoloyl)amino]butanoyl}amino)ethoxy]ethyl}-2,5-dioxopyrrolidin-3-yl)-L-cysteine/trifluoroacetic acid (1:1)] | 21 |  |

| SMILES | IC50 [1] [nM] | Papp B→A at 2 h [2] [nm/s] | efflux ratio at 2 h [2] |
| --- | --- | --- | --- |
| CC(C)(C)[C@H](c1nc(-c2cc(F)ccc2F)cn1Cc1ccccc1)N(CC[C@H](N)C(=O)NCCCC[C@H](N)C(=O)O)C(=O)CO.O=C(O)C(F)(F)F [Example 59, N^6-{(2S)-2-Amino-4-[{(1R)-1-[1-benzyl-4-(2,5-difluorophenyl)-1H-imidazol-2-yl]-2,2-dimethylpropyl}(glycoloyl)amino]butanoyl}-L-lysine trifluoroacetic acid (1:1)] | 4.27 | 22 | 4.8 |
| CC(C)[C@H](NC(=O)CCCCCN1C(=O)CC(SC[C@H](N)C(=O)O)C1=O)C(=O)N[C@@H](C)C(=O)N[C@@H](CCCCNC(=O)[C@@H](N)CCN(C(=O)CO)[C@@H](c1nc(-c2cc(F)ccc2F)cn1Cc1ccccc1)C(C)(C)C)C(=O)O.O=C(O)C(F)(F)F (stereo partly drawn) [Example 63, N-[6-(3-{[(2R)-2-Amino-2-carboxyethyl]sulfanyl}-2,5-dioxopyrrolidin-1-yl)hexanoyl]-L-valyl-L-alanyl-N^6-{(2S)-2-amino-4-[{(1R)-1-[1-benzyl-4-(2,5-difluorophenyl)-1H-imidazol-2-yl]-2,2-dimethylpropyl}(glycoloyl)amino]butanoyl}-L-lysine trifluoroacetic acid (1:1)] | 2.88 | 0.98 | 1.1 |
| CC(C)(C)[C@H](c1nc(-c2cc(F)ccc2F)cn1Cc1ccccc1)N(CC[C@H](N)C(=O)NCCNC(=O)CN1C(=O)CC(SC[C@H](N)C(=O)O)C1=O)C(=O)CO.O=C(O)C(F)(F)F (stereo partly drawn) [Example 64, S-[1-(2-{[2-({(2S)-2-Amino-4-[{(1R)-1-[1-benzyl-4-(2,5-difluorophenyl)-1H-imidazol-2-yl]-2,2-dimethylpropyl}(glycoloyl)amino]butanoyl}amino)ethyl]amino}-2-oxoethyl)-2,5-dioxopyrrolidin-3-yl]-L-cysteine trifluoroacetic acid (1:1)] | 3.06 | 10 | 2.8 |
| C[C@H](NC(=O)CCNC(=O)[C@@H](N)CCN(C(=O)CO)[C@@H](c1nc(-c2cc(F)ccc2F)cn1Cc1ccccc1)C(C)(C)C)C(=O)N[C@@H](CCCNC(N)=O)C(=O)Nc1ccc(NC(=O)CN2C(=O)CC(SC[C@H](N)C(=O)O)C2=O)cc1 (stereo partly drawn) [Example 65, N-{(2S)-2-Amino-4-[{(1R)-1-[1-benzyl-4-(2,5-difluorophenyl)-1H-imidazol-2-yl]-2,2-dimethylpropyl}(glycoloyl)amino]butanoyl}-beta-alanyl-L-alanyl-N-(4-{[(3-{[(2R)-2-amino-2-carboxyethyl]sulphanyl}-2,5-dioxopyrrolidin-1-yl)acetyl]amino}phenyl)-N^5-carbamoyl-L-ornithinamide] | 2.03 | 1.2 | 2.3 |
| CC(C)[C@H](N)C(=O)N[C@@H](CCCNC(N)=O)C(=O)NCCCN(C(=O)CO)[C@@H](c1nc(-c2cc(F)ccc2F)cn1Cc1ccccc1)C(C)(C)C [Example 101, Trifluoroacetic acid/L-valyl-N-{3-[{(1R)-1-[1-benzyl-4-(2,5-difluorophenyl)-1H-imidazol-2-yl]-2,2-dimethylpropyl}(glycoloyl)amino]propyl}-N5-carbamoyl-L-ornithinamide (1:1)] | 4.28 |  |  |
| CC(C)(C)[C@H](c1cc(-c2cc(F)ccc2F)cn1Cc1ccccc1)N(CC[C@H](N)C(=O)NCCNC(=O)CNC(=O)CC1SC[C@@H](C(=O)O)NC1=O)C(=O)CO (stereo partly drawn) [Example 256, (3R)-6-{(11S,15R)-11-Amino-15-[1-benzyl-4-(2,5-difluorophenyl)-1H-pyrrol-2-yl]-14-glycoloyl-16,16-dimethyl-2,5,10-trioxo-3,6,9,14-tetraazaheptadec-1-yl}-5-oxothiomorpholine-3-carboxylic acid/trifluoroacetic acid (1:1)] | 16.4 |  |  |
